Each structure is given as a SMILES string. Values joined by “and” are separate entries in the source; they are usually repeats but may differ in a detail not shown here. Identical values can stand only once. Some results are limits rather than exact numbers.

Series [1] deals with T1, CRAF (306-end) (Homo sapiens, UniProt P04049).
T1 construct: purchased
Nature of the series: ITC assay. It is filed as binding. To be noted: PBS (0.1% DMSO, pH = 7.4), read-out: affinity (Kd). How it is done: (§1) 293 T cells were transfected with plasmids of pcDNA3.1-3×Flag-C-MAP2K1/MAP2K1 (K97A, M146A), MAP2K2/MAP2K1 (K101A, M150A), or CRAF/CRAF (K375A). […]
(§2) The ITC experiment was performed on a MicroCal PEAQ-ITC. […] All proteins and erianin were diluted with PBS (0.1% DMSO, pH = 7.4), and deionized water was injected into the reference cell as a heat balance control. After 19 times titrations of erianin into the sample cell at a constant rate of 150 s, the titration curve was fitted with nonlinear least squares estimation model using Microcal ORIGIN V7.0.

The target in series [2] is T2, MEK1 full length (Homo sapiens, UniProt Q02750). Nature of the series: ITC assay. It is filed as binding. To be noted: PBS (0.1% DMSO, pH = 7.4), read-out: affinity (Kd). As to the method: as §1, §2
T2 sequence (Q02750 whole entry): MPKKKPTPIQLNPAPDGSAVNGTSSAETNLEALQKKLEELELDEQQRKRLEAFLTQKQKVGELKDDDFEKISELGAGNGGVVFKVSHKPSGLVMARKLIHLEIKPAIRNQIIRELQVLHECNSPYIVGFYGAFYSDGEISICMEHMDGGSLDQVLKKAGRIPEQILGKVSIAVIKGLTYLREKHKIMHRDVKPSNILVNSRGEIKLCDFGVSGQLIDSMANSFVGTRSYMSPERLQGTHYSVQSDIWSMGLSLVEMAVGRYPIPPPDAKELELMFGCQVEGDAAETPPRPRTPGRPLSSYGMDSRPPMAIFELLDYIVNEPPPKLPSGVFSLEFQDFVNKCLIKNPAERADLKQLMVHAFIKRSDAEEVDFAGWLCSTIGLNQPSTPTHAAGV
The target in series [3] is T3, MEK2 full length (Homo sapiens, UniProt P36507). Nature of the series: ITC assay. The following applies: PBS (0.1% DMSO, pH = 7.4), read-out: affinity (Kd). It is filed as binding. How it is done:
as §1, §2
A general note: ITC needs no label: the signal is the heat of the interaction.

Series [4] concerns the target T1, CRAF (306-end). Nature of the series: SPR. It is filed as binding. To be noted: CM5 chip, Biacore T200, read-out: equilibrium dissociation constant (KD). How it is done:
as §1
(§3) After incubation, a series concentration of erianin (RAF inhibitor LY3009120 and MEK inhibitor cobimetinib were simultaneously added as positive control) flowed through the protein-CM5 system. The binding was tested and analyzed using Biacore T200 instrument.

Series [5] has as its target T2, MEK1 full length. Description: SPR. It is filed as binding. The following applies: CM5 chip, Biacore T200, read-out: equilibrium dissociation constant (KD). As to the method: as §1, §3
The target in series [6] is T3, MEK2 full length. Description: SPR. To be noted: CM5 chip, Biacore T200, read-out: equilibrium dissociation constant (KD). It is filed as binding. As to the method: as §1, §3
Another series in a line: Pharmacokinetic assay. It is filed as in vivo, Kunming mice. To be noted: Kunming, mouse, plasma; oral gavage 50 mg/kg vs tail vein injection 25 mg/kg. The source says: For pharmacokinetic study of erianin, LC-MS/MS was implemented to monitor the plasma concentration over times and associated parameters. Chromatographic separation was obtained on an ZORBAX SB-C18 column (3.5 μm, 3.0 × 100 mm). 85% acetonitrile was selected as the mobile phase. The conditions of ESI source were optimized as follows: Spray voltage 4000 V; nitrogen for dying with a flow rate of 11 L/min. Detect the selected reaction monitoring mode for quantification, m/z 315.0 > 180.8 for IS and m/z 319.1 > 150.9 for erianin, respectively. 2′-Hydroxy-4,4′,6′-trimethoxychalcone (500 ng/mL) was selected as internal standard. After the validation of standard curves (0.1, 1, 5, 10, 50, 100, 500, 800, and 1200 ng/mL for oral; 10, 50, 100, 500, 800, 1200, 2400, 4800, 9600 ng/mL for intravenous) and methods including selectivity, linearity, sensitivity, precision and stability, erianin was given to Kunming mice through oral gavage (50 mg/kg, n = 6) or tail vein injection (25 mg/kg, n = 4). A series of time points including 0, 0.083, 0.25, 0.5, 0.75, 1, 2, 3, 4, and 8 h were set for blood extraction. The pharmacokinetic parameters were analyzed using DAS 2.0. Absolute bioavailability (F%) = (AUCoral × Div)/(AUCiv × Doral) × 100%.

Series [7] has as its system SK-MEL-2, A375, SK-MEL-28, and HCT 116. Nature of the series: Combination index assay. It is filed as cell-based, human. The following applies: erianin with vemurafenib; most of the CI; BRAF and RAS mutant cell lines. How it is done: (§4) The synergism and antagonism (CI value) were determined and analyzed using CompuSyn 1.0.
as §4

In series [8] the test system is SK-MEL-2, A375, SK-MEL-28, and HCT 116 cells. Nature of the series: MTT growth assay at 24, 48, or 72 h. It is filed as cell-based, human. To be noted: both BRAF and RAS mutant cell lines. As to the method: as §4
For cytotoxicity test, normal NHDF (5000 cells/well) and NHEM cell line (3000 cells/well) were planted into 96-well plates. For cell proliferation assay, A375 (1500 cells/well), SK-MEL-28 (3000 cells/well), SK-MEL-2 (4000 cells/well), and HCT116 (1500 cells/well) were planted into 96-well plates, determined concentration of drug was added after culture for 24 h. The viability of the cells was detected within 72 h using MTT solution (5 mg/mL). The absorbance at 570/490 nm was quantified by the use of the microplate reader.

For series [9] the test system is unchanged. Nature of the series: Anchorage-independent cell growth assay. The following applies: both BRAF and RAS mutant cell lines. It is filed as cell-based, human. As to the method:
as §4

Another series has as its system melanoma PDX. Nature of the series: Patient-derived xenograft (PDX). It is filed as in vivo. How it is done: Fig. 7 Erianin exerts antitumor efficacy in melanoma and colorectal cancer in vivo. a Tumor pharmacodynamic assay was performed in tumor-bearing NPG mice (tumor has been passaged from melanoma patient to mice for three generations). The photographs show tumors from melanoma PDX mice treated with vehicle or drugs. b The effect of erianin on the volume of PDX tumors over time (within 78 days) was plotted. Vehicle, erianin (50 mg/kg, once a day), vemurafenib (50 mg/kg, once a day), erianin and vemurafenib combination therapy, cobimetinib (5 mg/kg, twice a week) or vemurafenib and cobimetinib combination therapy (once a day and twice a week, respectively) were administered by oral gavage, n = 8 in each group. Tumor volume was measured once a week. […] Scale bars: 20 μm. One-way ANOVA test. ***p < 0.001. e Antitumor efficacy of erianin with or without immunity using B16F10 cell xenograft in C57BL-6J mouse. f, g Trend of tumor volume over time and tumor weight was measured after treatment on the last day of the study.
(In general: Xenograft models place foreign cells or tissue in a host animal.)

The subject of series [10] is colorectal cancer PDX harboring KRAS mutation. Nature of the series: Patient-derived xenograft (PDX). Also noted: species or system NOD-SCID mice. The following applies: mouse, in vivo. From the text: Figure S7. […] Tumor volume of (c). e Tumor weight of (c). f, h Changes of body weight after drug administration in melanoma and CRC PDX model. g, i HE staining of liver and spleen in melanoma PDX model. Scale bars: 200 μm.

The next series concerns CK1(y). Description: KinaseProfiler enzyme profiling. It is filed as biochemical, yeast. To be noted: 10 µM. The source says:
Enzyme profiling services were provided by KinaseProfiler™ (Eurofin, Brussels, Belgium). […] For more details, refer to the manufacturer’s instructions (www.eurofinsdiscoveryservices.com).

T1 sequence (P04049 306-648 limits assumed): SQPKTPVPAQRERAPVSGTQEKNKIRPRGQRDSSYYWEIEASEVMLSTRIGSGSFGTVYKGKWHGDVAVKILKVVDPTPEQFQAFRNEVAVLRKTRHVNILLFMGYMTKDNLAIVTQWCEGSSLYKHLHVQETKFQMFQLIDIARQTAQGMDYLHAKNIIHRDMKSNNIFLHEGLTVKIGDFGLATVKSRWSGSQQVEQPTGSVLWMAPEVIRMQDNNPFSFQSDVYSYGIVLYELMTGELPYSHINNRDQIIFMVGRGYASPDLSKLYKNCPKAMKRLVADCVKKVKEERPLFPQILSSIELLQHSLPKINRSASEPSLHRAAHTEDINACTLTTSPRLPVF
T3 sequence (P36507 whole entry): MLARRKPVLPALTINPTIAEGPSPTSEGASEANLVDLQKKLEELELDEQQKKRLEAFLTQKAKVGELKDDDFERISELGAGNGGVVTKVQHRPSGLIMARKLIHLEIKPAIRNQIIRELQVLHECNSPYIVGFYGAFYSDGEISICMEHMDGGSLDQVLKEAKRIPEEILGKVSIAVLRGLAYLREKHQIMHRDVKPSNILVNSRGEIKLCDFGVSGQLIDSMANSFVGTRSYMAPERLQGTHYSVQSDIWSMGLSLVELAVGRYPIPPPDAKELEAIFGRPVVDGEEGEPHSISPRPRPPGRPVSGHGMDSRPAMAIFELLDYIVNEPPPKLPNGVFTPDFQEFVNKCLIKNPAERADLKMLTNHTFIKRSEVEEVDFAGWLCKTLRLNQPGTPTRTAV

Turning to `COc1ccc(CCc2cc(OC)c(OC)c(OC)c2)cc1O` [Erianin], the Kd on CRAF (306-end) [1] is 46 µM; at MEK1 full length [2], 59.3 µM; on MEK2 full length [3], 101 µM; at CRAF (306-end) [4], 89.6 µM and 89.7 µM; at MEK1 full length [5], 68.5 µM; at MEK2 full length [6], 115 µM. The same compound returned a bioavailability in “Pharmacokinetic assay” of 8 ± 1.1%. In addition, in [7], the “combination index (CI)” value is on record as ≤ 1. Besides, the proliferation entry in series [8] is “markedly suppress”. The colonies formation result in series [9] was “markedly suppress”. The body weight result with melanoma PDX (50 mg/kg once a day, oral gavage) was “without significant changes”. Moreover, the “toxicity sign (HE staining)” value in the series with melanoma PDX (HE staining of liver and spleen) is “neither erianin group nor erianin-vemurafenib combination therapy showed toxicity sign”. Also, in the series on melanoma PDX (oral gavage, erianin, vemurafenib 50 mg/kg once a day, cobimetinib 5 mg/kg twice a week, within 78 days), the tumor volume entry is recorded as “significant decrease”. Moreover, in series [10], the “toxicity in body weight” value was “low toxicity”. For the same compound, the tumor growth result in series [10] is “restrained tumor growth significantly”.

Turning to `COc1cc2oc(-c3ccc(O)c(O)c3)cc(=O)c2c(O)c1OC` [Cirsiliol], in the series with CK1(y), the Activity % was found to be 95%.

In general, Kd refers to the concentration at which binding is half-saturated. The term bioavailability denotes dose-corrected exposure relative to a reference, in per cent. The low end stands for poor availability, the high end for good availability.
